Earlier results as cited in PMC9653995, “New Positive TRPC6 Modulator Penetrates Blood–Brain Barrier, Eliminates Synaptic Deficiency and Restores Memory Deficit in 5xFAD Mice” (International Journal of Molecular Sciences, 2022).

System: TRPC3
Conditions: cited from earlier work

O=C(c1cc2c(s1)CCCCC2)N1CCC(n2c(=O)[nH]c3ccccc32)CC1 [GSK1702934A, reference compound]
activation of TRPC3: activate TRPC3
